Data reported in patent publication US11945811B2, “Potassium channel inhibitors” (ACESION PHARMA APS, priority 2021, dated 2024).

Biological target: T1, human SK3 channel (hKCa2.3) (Homo sapiens, UniProt Q9UGI6)
T1 construct: expressed in transfected cells
Assay: Automated patch clamping (QPatch 16 HT whole-cell recordings)
Assay type: cell-based
Conditions: HEK-293 cells stably expressing hKCa2.3; currents measured at −80 mV; normalized to N-methyl bicuculline; read-out: IC50 in the Automated patch clamping assay (SK3 channel inhibition)
Description: Automated whole cell patch-clamp recordings were performed using a QPatch 16 HT system and single-hole Qplates (Sophion, Denmark) on HEK-293 cells stably expressing the human SK3 channel (hKCa2.3). Cells were cultured and prepared for experiments using normal cell culturing procedures. A total of 4-5 million cells were used per experiment. The Qpatch automatically generates giga sealing, whole-cell formation, compound application and recording of current. hKCa2.3 currents were recorded in symmetrical K^+ solutions. The intracellular/pipette solution contained 154 mM KCl, 10 mM HEPES and 10 mM EGTA. CaCl2 is added to give calculated free concentrations of Ca^2+ of 0.4 μM and MgCl2 is added to give a free concentration of 1 mM. In order to maintain a total [K^+] of 156 mM (corresponding to the concentration in the extracellular ringer) a fixed amount of KOH (15 mM) is added, thereafter pH is adjusted with HCl to pH=7.2. Expected osmolarity: 275 mOsm. Sucrose was added to a final osmolarity around 295 mosm. The extracellular solution consisted of (in mM): CaCl2 0.1, MgCl2 3, KCl 150, HEPES 10 and glucose 10, pH=7.4 adjusted with KOH. Osmolarity between 285-295 mosm. The cells were held at 0 mV and hKCa2.3 currents were elicited by a linear voltage ramp from −80 mV to +80 mV (200 ms in duration) applied every 5th second.
The compound application protocol consisted of 12 recording periods lasting 200 s: 1) Baseline recordings in extracellular solution; 2) Application of the positive control N-methyl bicuculline (100 μM), which is characterized by full efficacy, fast on- and off-rate; 3-4) Wash-out; 5-10) Increasing concentrations of test compound to establish an IC50 value; 11-12) Wash-out; 13) positive control with compound NS8593 (N-[(1R)-1,2,3,4-tetrahydro-1-naphthalenyl]-1H-benzimidazol-2-amine) (1 μM) or with N-methyl bicuculline (100 μM). Data were sampled at 10 kHz, 4th order Bessel filter, cut-off frequency 3 kHz. Currents were compensated for run-down. Potency was quantified as the concentration needed to inhibit half of the SK channel activity and reported as an IC50 value.
All effects of compounds of the present invention as tested were normalized to the observed inhibitory effect of N-methyl bicuculline. Currents were measured at −80 mV.

IC50 [µM]	Compound
< 30	Cn1nccc1NCc1cccc2[nH]c(NC(C)(CO)c3cccc(C(F)(F)F)c3)nc12 (stereo not shown) [Example 21, 2-((4-(((1-methyl-1H-pyrazol-5-yl)amino)methyl)-1H-benzo[d]imidazol-2-yl)amino)-2-(3-(trifluoromethyl)phenyl) propan-1-ol]
< 1	CC(CO)(Nc1nc2c(Cn3ccoc3=N)cccc2[nH]1)c1cccc(C(F)(F)F)c1 (stereo not shown) [Example 18, 2-({4-[(2-imino-2,3-dihydro-1,3-oxazol-3-yl)methyl]-1H-1,3-benzodiazol-2-yl}amino)-2-[3-(trifluoromethyl)phenyl]propan-1-ol]
< 30	Cc1cn(Cc2cccc3[nH]c(NC(C)(CO)c4cccc(C(F)(F)F)c4)nc23)c(=N)o1 (single isomer, unassigned) [Example 24a]
< 30	CC(CO)(Nc1nc2c(CNc3ccncn3)cccc2[nH]1)c1ccc(F)c(Cl)c1 (stereo not shown) [Example 11, 2-(3-chloro-4-fluorophenyl)-2-[(4-{[(pyrimidin-4-yl)amino]methyl}-1H-1,3-benzodiazol-2-yl)amino]propan-1-ol]
< 1	Cc1cc(NCc2cccc3[nH]c(NC(C)(CO)c4ccc(F)c(Cl)c4)nc23)no1 (single isomer, unassigned; (-)) [Example 12a, (−)-2-(3-chloro-4-fluorophenyl)-2-((4-(((5-methylisoxazol-3-yl)amino)methyl)-1H-benzo[d]imidazol-2-yl)amino)propan-1-ol]
< 30	CC(CO)(Nc1nc2c(CNc3ccon3)cccc2[nH]1)c1ccc(Cl)c(F)c1 (single isomer, unassigned) [Example 44a]
< 30	Cc1cc(NCc2cccc3[nH]c(NC(C)(CO)c4ccc(F)c(Cl)c4)nc23)no1 (single isomer, unassigned; (+)) [Example 12b, (+)-2-(3-chloro-4-fluorophenyl)-2-((4-(((5-methylisoxazol-3-yl)amino)methyl)-1H-benzo[d]imidazol-2-yl)amino)propan-1-ol]
< 30	CC(CO)(Nc1nc2c(Cn3ccoc3=N)cccc2[nH]1)c1cccc(OC(F)(F)F)c1 (single isomer, unassigned) [Example 27b]
< 1	CC(CO)(Nc1nc2c(Cn3ccoc3=N)cccc2[nH]1)c1cccc(Cl)c1 (stereo not shown) [Example 3, 2-(3-chlorophenyl)-2-({4-[(2-imino-2,3-dihydro-1,3-oxazol-3-yl)methyl]-1H-1,3-benzodiazol-2-yl}amino)propan-1-ol]
< 30	CC(CO)(Nc1nc2c(CNc3ncco3)cccc2[nH]1)c1cc(Cl)ccc1F (single isomer, unassigned; (+)) [Example 48a, (+)-2-(5-chloro-2-fluorophenyl)-2-[(4-{[(1,3-oxazol-2-yl)amino]methyl}-1H-1,3-benzodiazol-2-yl)amino]propan-1-ol]
< 1	CC(CO)(Nc1nc2c(Cn3ccoc3=N)cccc2[nH]1)c1cccc(OC(F)(F)F)c1 (single isomer, unassigned; (+)) [Example 27a, (+)-2-({4-[(2-imino-2,3-dihydro-1,3-oxazol-3-yl)methyl]-1H-1,3-benzodiazol-2-yl}amino)-2-[3-(trifluoromethoxy)phenyl]propan-1-ol]
< 30	CC(CO)(Nc1nc2c(CNc3ccon3)cccc2[nH]1)c1cccc(Cl)c1F (single isomer, unassigned) [Example 43a]
< 30	CC(CO)(Nc1nc2c(Cn3ccoc3=N)cccc2[nH]1)c1cccc(Cl)c1 (single isomer, unassigned; (+)) [Example 3b, (+)-2-(3-chlorophenyl)-2-({4-[(2-imino-2,3-dihydro-1,3-oxazol-3-yl)methyl]-1H-1,3-benzodiazol-2-yl}amino)propan-1-ol]
< 1	Cc1cn(Cc2cccc3[nH]c(NC(C)(CO)c4cccc(OC(F)(F)F)c4)nc23)c(=N)o1 (stereo not shown) [Example 30, 2-({4-[(2-imino-5-methyl-2,3-dihydro-1,3-oxazol-3-yl)methyl]-1H-1,3-benzodiazol-2-yl}amino)-2-[3-(trifluoromethoxy)phenyl]-propan-1-ol]
< 1	CC(CO)(Nc1nc2c(Cn3ccoc3=N)cccc2[nH]1)c1cccc(Cl)c1 (single isomer, unassigned; (-)) [Example 3a, (−)-2-(3-chlorophenyl)-2-({4-[(2-imino-2,3-dihydro-1,3-oxazol-3-yl)methyl]-1H-1,3-benzodiazol-2-yl}amino)propan-1-ol]
< 1	CC(CO)(Nc1nc2c(Cn3ccoc3=N)cccc2[nH]1)c1cccc(C(F)(F)F)c1 (single isomer, unassigned; (-)) [Example 18a, (−)-2-({4-[(2-imino-2,3-dihydro-1,3-oxazol-3-yl)methyl]-1H-1,3-benzodiazol-2-yl}amino)-2-[3-(trifluoromethyl)-phenyl]propan-1-ol]

Further lines, the compound ahead of its results:

Compound	IC50 [µM]
CC(CO)(Nc1nc2c(CN3CCSC3=O)cccc2[nH]1)c1ccc(F)c(Cl)c1 (stereo not shown) [Example 36, 3-[(2-{[2-(3-chloro-4-fluorophenyl)-1-hydroxypropan-2-yl]amino}-1H-1,3-benzodiazol-4-yl)methyl]-1,3-thiazolidin-2-one]	< 30
CC(CO)(Nc1nc2c(Cn3ccoc3=N)cccc2[nH]1)c1cc(Cl)ccc1F (single isomer, unassigned) [Example 47a]	< 1
CC(CO)(Nc1nc2c(Cn3ccoc3=N)cccc2[nH]1)c1ccc(Cl)c(Cl)c1 (stereo not shown) [Example 19, 2-(3,4-dichlorophenyl)-2-({4-[(2-imino-2,3-dihydro-1,3-oxazol-3-yl)methyl]-1H-1,3-benzodiazol-2-yl}amino)propan-1-ol]	< 1
COCC(C)(Nc1nc2c(Cn3c(C)coc3=N)cccc2[nH]1)c1cccc(Cl)c1 (stereo not shown) [Example 10, N-[2-(3-chlorophenyl)-1-methoxypropan-2-yl]-4-[(2-imino-4-methyl-2,3-dihydro-1,3-oxazol-3-yl)methyl]-1H-1,3-benzodiazol-2-amine]	< 30
CC(CO)(Nc1nc2c(CN3CCNC3=O)cccc2[nH]1)c1ccc(F)c(Cl)c1 (stereo not shown) [Example 34, 1-[(2-{[2-(3-chloro-4-fluorophenyl)-1-hydroxypropan-2-yl]amino}-1H-1,3-benzodiazol-4-yl)methyl]imidazolidin-2-one]	< 30
CC(CO)(Nc1nc2c(Cn3ccsc3=N)cccc2[nH]1)c1ccc(F)c(Cl)c1 (single isomer, unassigned; (-)) [Example 32a, (−)-2-(3-chloro-4-fluorophenyl)-2-({4-[(2-imino-2,3-dihydro-1,3-thiazol-3-yl)methyl]-1H-1,3-benzodiazol-2-yl}amino)propan-1-ol]	< 1
CC(CO)(Nc1nc2c(Cn3ccoc3=N)cccc2[nH]1)c1ccc(F)c(Cl)c1 (single isomer, unassigned; (-)) [Example 8a, (−)-2-(3-chloro-4-fluorophenyl)-2-({4-[(2-imino-2,3-dihydro-1,3-oxazol-3-yl)methyl]-1H-1,3-benzodiazol-2-yl}amino)propan-1-ol]	< 1
CC(Nc1ncco1)c1cccc2[nH]c(NC(C)(CO)c3ccc(F)c(Cl)c3)nc12 (stereo not shown) [Example 31, 2-(3-chloro-4-fluorophenyl)-2-[(4-{1-[(1,3-oxazol-2-yl)amino]ethyl}-1H-1,3-benzodiazol-2-yl)amino]propan-1-ol]	< 30
COCC(C)(Nc1nc2c(Cn3ccoc3=N)cccc2[nH]1)c1cccc(Cl)c1 (stereo not shown) [Example 6, N-[2-(3-chlorophenyl)-1-methoxypropan-2-yl]-4-[(2-imino-2,3-dihydro-1,3-oxazol-3-yl)methyl]-1H-1,3-benzodiazol-2-amine]	< 30
CC(CO)(Nc1nc2c(Cn3ccoc3=N)cccc2[nH]1)c1ccc(Cl)c(F)c1 (single isomer, unassigned) [Example 39b, 2-(4-chloro-3-fluorophenyl)-2-({4-[(2-imino-2,3-dihydro-1,3-oxazol-3-yl)methyl]-1H-1,3-benzodiazol-2-yl}amino)propan-1-ol]	< 30
CC(CO)(Nc1nc2c(Cn3ccoc3=N)cccc2[nH]1)c1cccc(Cl)c1F (single isomer, unassigned; (-)) [Example 41a, (−)-2-(3-chloro-2-fluorophenyl)-2-({4-[(2-imino-2,3-dihydro-1,3-oxazol-3-yl)methyl]-1H-1,3-benzodiazol-2-yl}amino)propan-1-ol]	< 1
Cc1oc(=N)n(Cc2cccc3[nH]c(NC(C)(CO)c4ccc(F)c(Cl)c4)nc23)c1C (stereo not shown) [Example 20, 2-(3-chloro-4-fluorophenyl)-2-({4-[(2-imino-4,5-dimethyl-2,3-dihydro-1,3-oxazol-3-yl)methyl]-1H-1,3-benzodiazol-2-yl}amino)propan-1-ol]	< 1
